Where two headings read alike, the source gives them in different places.
Tests used:
[1] = system: IL-1β, mouse primary microglia; assay: Inflammasome assay in primary mouse postnatal microglia using LPS/0 mM extracellular K+ (IL-1β levels); format: cell-based; details: 100 ng/mL LPS 3.5 hours, compound 30 minutes, then K+ free buffer 2 hours, IL-1β by MesoScale Discovery
Procedure: Newly shaken mouse microglia cells were added to a 96-well plate and left to adhere overnight. After this time, 100 ng/mL LPS was added to each well and incubated at 37° C. for 3.5 hours, at which point compound addition was undertaken and plates incubated at 37° C. for an additional 30 minutes. After this time, the medium in each well was removed and replaced with K^+ free buffer and the plates then incubated for an additional 2 hours at 37° C. Measurement of IL-1βlevels in the sample wells was undertaken using MesoScale Discovery™ MESO QuickPlex SQ 120 and […] from mouse IL-1β DuoSet ELISA kit (R&D System, DY401).

[2] = biological target: T1, human KCNK13 (Homo sapiens, UniProt Q9HB14); assay: KCNK13 antagonist activity, thallium (Tl+) flux FLIPR assay; format: cell-based
T1 construct: expressed in transfected cells
T1 sequence (Q9HB14 1-408): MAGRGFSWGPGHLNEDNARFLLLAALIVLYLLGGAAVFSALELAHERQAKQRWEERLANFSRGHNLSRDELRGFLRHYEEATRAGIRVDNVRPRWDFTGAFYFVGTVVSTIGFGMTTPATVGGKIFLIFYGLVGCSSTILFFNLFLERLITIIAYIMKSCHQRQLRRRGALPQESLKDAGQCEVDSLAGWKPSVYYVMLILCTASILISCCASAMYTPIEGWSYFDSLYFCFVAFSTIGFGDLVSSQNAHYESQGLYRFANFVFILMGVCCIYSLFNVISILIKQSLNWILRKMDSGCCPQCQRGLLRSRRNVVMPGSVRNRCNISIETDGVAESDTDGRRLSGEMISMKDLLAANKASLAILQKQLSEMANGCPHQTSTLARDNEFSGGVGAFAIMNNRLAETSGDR
How it was run: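 HEK 293 cells stably expressing human KCNK13 loaded with Tl+-sensitive dye for 1 h at room temperature. Compounds (10-point half-log curves) preincubated 15 min before thallium sulfate stimulus, fluorescence tracked by FLIPR. IC50 from ten-point curves, each point the mean of two wells.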

[3] = HEK 293 cells stably expressing human KCNK13, Tl+ sensitive dye, FLIPR, compounds 15 minutes prior to thallium sulfate, 10 point half log curves from 10 PM, read-out: hKCNK13 IC50

Nc1nonc1-c1nc2cccc(F)c2n1Cc1cnccn1 [Example 32, 4-[7-fluoro-1-(pyrazin-2-ylmethyl)benzimidazol-2-yl]-1,2,5-oxadiazol-3-amine]
IC50 [1]: ≤ 200 nM
IC50 [2, 3]: < 50 nM

Nc1nonc1-c1nc2cccc(F)c2n1Cc1ccncc1 (single isomer, unassigned) [Example 120, 4-[7-fluoro-1-(pyridin-4-ylmethyl)benzimidazol-2-yl]-1,2,5-oxadiazol-3-amine]
IC50 [1]: ≤ 50 nM
IC50 [2, 3]: < 50 nM

Nc1nonc1-c1nc2ccccc2n1Cc1cncnc1 [Example 21, 4-[1-(pyrimidin-5-ylmethyl)benzimidazol-2-yl]-1,2,5-oxadiazol-3-amine]
IC50 [1]: ≤ 100 nM
IC50 [2]: < 50 nM

Cc1nonc1-c1nc2cccc(F)c2n1Cc1cncnc1 [Example 49, 3-[7-fluoro-1-(pyrimidin-5-ylmethyl)benzimidazol-2-yl]-4-methyl-1,2,5-oxadiazole]
IC50 [1]: ≤ 50 nM
IC50 [2, 3]: < 100 nM

Nc1nonc1-c1nc2ccccc2n1Cc1ccncc1 [Example 71, 4-[1-(pyridin-4-ylmethyl)benzimidazol-2-yl]-1,2,5-oxadiazol-3-amine]
IC50 [1]: ≤ 200 nM
IC50 [2, 3]: < 100 nM

Nc1nonc1-c1nc2cccc(F)c2n1Cc1cccnc1 (single isomer, unassigned) [Example 86, 4-[7-fluoro-1-(pyridin-3-ylmethyl)benzimidazol-2-yl]-1,2,5-oxadiazol-3-amine]
IC50 [1]: ≤ 50 nM
IC50 [2, 3]: < 50 nM

Cc1nonc1-c1nc2ccccc2n1Cc1cncnc1 [Example 57, 3-methyl-4-[1-(pyrimidin-5-ylmethyl)benzimidazol-2-yl]-1,2,5-oxadiazole]
IC50 [1]: ≤ 200 nM
IC50 [2, 3]: < 100 nM

From US20240158385A1, “NOVEL COMPOUNDS” (Cerevance, Inc., priority 2021, published 2024)
